In ChEMBL document CHEMBL5331121, “Preferred Conformation-Guided Discovery of Potent and Orally Active HIF Prolyl Hydroxylase 2 Inhibitors for the Treatment of Anemia” (J Med Chem, 2023):
Activity calls are given as the source filed them. No cut-off for these calls is given here.

Tests used:
Egl nine homolog 1 = Egl nine homolog 1 (Homo sapiens, UniProt Q9GZT9); test: Binding affinity to […] PHD2 (181 to 426 residues) (unknown origin) by fluorescence polarization assay
Erythrocyte = test: Upregulation of reticulocytes in C57BL/6J mouse assessed as increase in RBC at 10 to 50 mg/kg, po administered once daily for 3 days; assay type: functional, organism-based; conditions: dose 10-50 mg/kg, time 3.0 day
Mus musculus = test: Upregulation of reticulocytes in C57BL/6J mouse at 10 mg/kg, po administered once daily for 3 days; assay type: functional, organism-based; conditions: time 3.0 day

Sequence of Egl nine homolog 1 (Q9GZT9 whole entry, the tested form may be a part): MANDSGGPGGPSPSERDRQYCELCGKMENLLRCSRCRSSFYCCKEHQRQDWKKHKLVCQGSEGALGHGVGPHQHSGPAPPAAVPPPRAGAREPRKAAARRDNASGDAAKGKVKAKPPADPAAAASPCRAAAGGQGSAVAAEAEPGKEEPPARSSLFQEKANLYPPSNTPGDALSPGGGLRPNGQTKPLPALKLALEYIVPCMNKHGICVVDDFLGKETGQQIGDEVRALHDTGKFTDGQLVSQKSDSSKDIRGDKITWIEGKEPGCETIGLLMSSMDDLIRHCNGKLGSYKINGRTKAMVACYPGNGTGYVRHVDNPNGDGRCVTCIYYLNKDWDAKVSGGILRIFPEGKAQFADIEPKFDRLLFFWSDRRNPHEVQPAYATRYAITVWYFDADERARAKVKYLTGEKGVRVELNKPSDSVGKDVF

| SMILES | IC50 (Egl nine homolog 1) [nM] | Activity (Erythrocyte) | Activity (Mus musculus) |
| --- | --- | --- | --- |
| O=C(O)CNC(=O)c1ncc(C2CCN(C(=O)c3ccccc3F)CC2)cc1O | 92.7 | – | – |
| O=C(O)CNC(=O)c1ncc(C2CCN(C(=O)c3cccc(Cl)c3)CC2)cc1O | 195 | – | – |
| O=C(O)CNC(=O)c1ncc(-c2cccc(Cl)c2)cc1O | – | Dose-Dependent Effect | Active |
| O=C(O)CNC(=O)c1ncc(C2CCN(C(=O)c3ccccn3)CC2)cc1O | 158 | – | – |
| O=C(O)CNC(=O)c1ncc(C2CCN(C(=O)c3cccc(F)c3)CC2)cc1O | 77.1 | – | – |

The remaining compounds from weak to strong by IC50 (Egl nine homolog 1), led by results:

| IC50 (Egl nine homolog 1) [nM] | SMILES | Activity (Erythrocyte) | Activity (Mus musculus) |
| --- | --- | --- | --- |
| 76.5 | N#Cc1ccc(C(=O)N2CCC(c3cnc(C(=O)NCC(=O)O)c(O)c3)CC2)cc1 | – | – |
| 24.3 | O=C(O)CNC(=O)c1ncc(C2CCN(C(=O)CNc3ccc(F)cc3)CC2)cc1O | – | – |
| 22.7 | O=C(O)CNC(=O)c1ncc(-c2cn(CCCc3ccc(Cl)cc3)nn2)cc1O | – | – |
